The text below walks through data of PubChem BioAssay AID1329 (NMMLSC, 2008).

Calls of active or inactive are those of the source. No rule for the calls is given here.

The target of this test is Induced myeloid leukemia cell differentiation protein Mcl-1 (Homo sapiens) (UniProt Q07820). Put plainly: Mcl-1/Bim interaction regulators – biochemical, bead-based flow cytometry, multiplexed, human, dose response (AID 1329). Particulars: Bim peptide-Mcl-1 binding, MCF.
Chain of Induced myeloid leukemia cell differentiation protein Mcl-1 (Homo sapiens) (Q07820 whole entry, looked up): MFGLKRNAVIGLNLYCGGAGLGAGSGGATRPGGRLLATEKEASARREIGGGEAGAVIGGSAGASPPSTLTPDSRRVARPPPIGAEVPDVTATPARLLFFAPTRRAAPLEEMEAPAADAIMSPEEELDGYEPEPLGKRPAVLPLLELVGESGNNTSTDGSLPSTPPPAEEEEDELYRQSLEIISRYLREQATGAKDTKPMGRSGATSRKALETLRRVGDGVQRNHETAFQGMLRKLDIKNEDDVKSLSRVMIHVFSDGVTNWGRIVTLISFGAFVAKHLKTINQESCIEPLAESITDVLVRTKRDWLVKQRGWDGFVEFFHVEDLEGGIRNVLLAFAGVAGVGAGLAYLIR

Consider `O=C(CSc1ccc2nnc(-c3ccncc3)n2n1)Nc1nccs1`, for which the percent span entry is “inactive”.

Turning to `O=C(Nc1cccc(Cl)c1)Nc1ccnc(-c2cccnc2)n1`, the percent span entry is “inactive”.

`CN=C(NC1CCCCC1)c1ccc(Cl)cc1`: the percent span entry is “inactive”.

In the case of `CCOc1cc(/C=N/NC(=O)c2cccs2)cc([N+](=O)[O-])c1O`, the percent span result is “inactive”.

Regarding `O=C(Nc1nnc(C2CC2)s1)C1Cc2ccccc2CN1S(=O)(=O)c1ccccc1F` (stereo not drawn), the percent span entry was “inactive”.

As to `N/C(=N\OC(=O)CCC1CCCC1)c1ccncc1`, the percent span result is “inactive”.

As to `O=C1CCc2cc(S(=O)(=O)NCCCC(=O)N3CCN(Cc4ccc5c(c4)OCO5)CC3)ccc2N1`, the percent span entry was “inactive”.

Consider `S=c1[nH]cc(-c2ccccc2)n1-c1ccccc1Cl`, for which the percent span result was “inactive”.

With `CCCCC(C(=O)OCC)C(N)Cc1ccc(F)cc1` (stereo not drawn), the percent span entry is “inactive”.

For the molecule `Cc1[nH]nc(SCC(=O)NCc2ccc(F)cc2)c1[N+](=O)[O-]`, the percent span result is “inactive”.

`COc1ccc(N=C2NC(=O)/C(=C\C=C\c3ccco3)S2)cc1`: the percent span result was “inactive”.

For the molecule `Cc1ccc(-c2cc(C(=O)Nc3nccs3)c3ccccc3n2)o1`, the percent span result is “inactive”.

`Cc1ccc(NC(=O)CC2S/C(=N/N=C/c3c[nH]c4ccccc34)NC2=O)cc1` (stereo not drawn): the percent span result is “inactive”.

Regarding `Cc1ccc(C(=O)N(CCCN(C)C)c2nc3ccc(Cl)cc3s2)cc1C`, the percent span result is “inactive”.

As for `CCOCCOc1nc2c(c(=O)n(C)c(=O)n2C)n1CCc1ccccc1`, the percent span result is “inactive”.

Take `Cc1ccc(C(=O)CCC(=O)Nc2ccc(Cl)c(S(=O)(=O)Nc3cccc(Cl)c3)c2)cc1`: the percent span entry was “inactive”.

As for `COc1ccc(OC)c(-n2c(-c3ccc(C)cc3)n[nH]c2=S)c1`, the percent span entry was “inactive”.

Turning to `CCOc1ccccc1NC(=O)CSc1ccc2nnc(-c3cccnc3)n2n1`, the percent span result is “inactive”.

As for `CCOc1ccccc1/C=N/NC(=O)CNC(=O)COc1ccccc1`, the percent span entry was “inactive”.

Turning to `c1ccc(-c2nc(N3CCCCCC3)c3ccccc3n2)nc1`, the percent span result is “inactive”.

Consider `Cc1cc(C)c(C)c(S(=O)(=O)N2CCN(CC(=O)NC(=O)NCc3ccccc3)CC2)c1C`, for which the percent span entry is “inactive”.

On to `N#Cc1ccc(N=c2ssnc2Cl)cc1`, for which the percent span entry is “inactive”.

As for `COC(=O)c1cccc(-n2c(C)cc(C=O)c2C)c1`, the percent span result is “inactive”.

`O=C(COc1ccc(Br)cc1CNC1CCCCC1)NCCc1ccccc1`: the percent span result was “inactive”.

For the molecule `COc1ccc(C2CC(=O)C3=C(C2)Nc2ccccc2NC3c2coc3ccccc3c2=O)cc1OC` (stereo not drawn), the percent span entry is “inactive”.

Consider `COC(=O)c1ccc(C)c(NC(=O)CCNC(=O)c2ccc([N+](=O)[O-])cc2)c1`, for which the percent span result is “inactive”.

As to `NNC(=O)COc1ccccc1F`, the percent span result was “inactive”.

With `Cn1c(=O)c2c(nc(NCCO)n2CCc2ccccc2)n(C)c1=O`, the percent span result was “inactive”.

With `NC(=O)c1sc2nc3c(c(-c4ccco4)c2c1N)CCC3`, the percent span result is “inactive”.

As for `COc1cc(N=c2ssnc2Cl)c(OC)cc1Cl`, the percent span result is “inactive”.

As to `OC(CNC1CCCCC1)COCCOc1ccc(Br)cc1` (stereo not drawn), the percent span entry was “inactive”.

As to `Cc1ccc(CC(=O)OCCNC(=O)c2cccnc2)cc1`, the percent span entry is “inactive”.

Regarding `CCOc1ccccc1-n1c(=O)c2ccccc2c2ccccc2c1=O`, the percent span entry was “inactive”.

Turning to `O=C(O)CC1S/C(=N/N=C/C=C/c2ccccc2[N+](=O)[O-])NC1=O` (stereo not drawn), the percent span result was “inactive”.

With `CC1(C(=O)N(CC(=O)NC2CCCC2)Cc2ccco2)CC(=O)N=C2C=CC=CN21` (stereo not drawn), the percent span entry is “inactive”.

For `O=C(N/N=C/c1cccc([N+](=O)[O-])c1)c1cccs1`, the percent span entry was “inactive”.

In the case of `Cc1ccc(/C=C2\CCCC3=C2NC(=S)NC3c2ccc(C)cc2)cc1` (stereo not drawn), the percent span result was “inactive”.

Regarding `CNC(=S)N/N=C/C1=CCC2CC1C2(C)C` (stereo not drawn), the percent span result was “inactive”.

With `O=C(O)c1ccc(NS(=O)(=O)c2ccc3c(c2)C(=O)c2ccccc2C3=O)cc1`, the percent span entry is “inactive”.

On to `Cc1ccc(NC2=C(Cl)C(=O)c3ccccc3C2=O)cc1`, for which the percent span result is “inactive”.

Turning to `Cc1ccc(-c2cc(-c3ccccc3)c(C#N)c(N)n2)o1`, the percent span entry was “inactive”.

As for `COc1cccc(C(=O)/C=C/Nc2ccc(S(=O)(=O)Nc3onc(C)c3C)cc2)c1`, the percent span entry was “inactive”.

As for `Cc1ccc(C)n1-c1ccc(N2CCOCC2)cc1`, the percent span entry was “inactive”.

In the case of `N#Cc1cc(-c2ccccc2)nn1-c1ccccc1`, the percent span entry is “inactive”.

Consider `C=CCn1c(SCC(=O)Nc2ccc3c(c2)OCO3)nnc1-c1cc(Br)ccc1O`, for which the percent span result is “inactive”.

On to `Cc1ccc(-c2cc(C(=O)N3CCN(c4ncccn4)CC3)c3cc(Br)ccc3n2)o1`, for which the percent span result is “inactive”.

As to `CC1(C)Cc2c(ccc3ccccc23)/C(=C/C(=O)N2CCCCC2)N1`, the percent span entry is “inactive”.

With `Cc1ccc(/C=C/C(=O)c2ccccc(=O)c2O)cc1C`, the percent span result was “inactive”.

For `O=[N+]([O-])c1ccc(-c2cn(-c3ccc(Cl)cc3)c(=S)[nH]2)cc1`, the percent span entry was “inactive”.

Consider `O=C(COCC(=O)NCc1ccccc1)NCc1ccccc1`, for which the percent span entry was “inactive”.

Consider `Oc1ccc(NCc2ccccc2OCc2ccccc2)cc1`, for which the percent span result was “inactive”.

Regarding `Cc1ccc(-c2nnc(Cc3ccc(Cl)cc3)o2)cc1`, the percent span entry was “inactive”.

Turning to `COc1ccc2nc(C)cc(SCC(=O)N/N=C/c3ccc(O)cc3O)c2c1`, the percent span result was “inactive”.

With `COc1cc(N=c2ssnc2Cl)cc(OC)c1OC`, the percent span result is “inactive”.

As to `CCNC(=S)Nc1ccc(OCC)cc1`, the percent span result is “inactive”.

For `O=[N+]([O-])c1cccc(S(=O)(=O)NCC2CCCO2)c1` (stereo not drawn), the percent span result was “inactive”.

On to `Cc1cc[n+]2cc(-c3cccc([N+](=O)[O-])c3)c(-c3cccc([N+](=O)[O-])c3)cc2c1`, for which the percent span entry was “inactive”.

With `COc1ccc(NC(=O)c2ccco2)cc1NC(=O)c1ccco1`, the percent span result was “inactive”.

Turning to `CCCC1(C(=O)OCC)NC(c2cc(OC)c(OC)c(OC)c2)C2C(=O)N(CC)C(=O)C21` (stereo not drawn), the percent span result is “inactive”.

`CC(NCc1ccc(-c2ccccc2)cc1)C(O)c1ccccc1` (stereo not drawn): the percent span result is “inactive”.

Consider `COc1cc(CNc2ccc(N3CCCC3)cc2)cc(Cl)c1OC`, for which the percent span entry is “inactive”.

As for `Cc1cc(C)c2nc3nc(C)cc(C)c3c(N)c2c1`, the percent span entry is “inactive”.

Regarding `COc1cc(NC(=S)NCCCO)c(OC)cc1Cl`, the percent span result is “inactive”.

For the molecule `O=C(/C=C/c1ccc(-c2ccccc2[N+](=O)[O-])o1)c1ccccc1`, the percent span entry was “inactive”.

In the case of `CNC(=O)c1c(N)sc2c1CCCCC2`, the percent span entry is “inactive”.

On to `O=C(NC1=C(Nc2ccc(Cl)cc2)C(=O)c2ccccc2C1=O)c1ccccc1`, for which the percent span result was “inactive”.

Take `O=C1c2ccccc2-c2onc3ccc(NCCCn4ccnc4)c1c23`: the percent span entry is “inactive”.

On to `O=C(O)CC/C(=C\c1cc([N+](=O)[O-])ccc1Cl)c1nc2ccccc2s1`, for which the percent span result was “inactive”.

`COc1ccc(Cl)cc1-n1c(C)cc(C=O)c1C`: the percent span result is “inactive”.

On to `CN(C)CCNC(=O)C(=O)C1C(=O)Nc2ccccc21` (stereo not drawn), for which the percent span result was “inactive”.

In the case of `COc1ccc(S(=O)(=O)NCCOc2cccc3cccnc23)cc1OC`, the percent span result was “inactive”.

Regarding `COc1ccccc1N(C)S(=O)(=O)c1ccc(C(=O)OCC(N)=O)cc1`, the percent span entry was “inactive”.

Consider `CCN(CC)c1ccc(NC(=O)c2ccccc2F)cc1S(=O)(=O)Nc1ccccc1OC`, for which the percent span result is “inactive”.

`COc1cccc2c1C(=O)C=C(C)C2=O`: the percent span result is “inactive”.

Regarding `O=C(NCC1CCCO1)c1ccc2c(=O)n(-c3ccc(F)cc3)c(=S)[nH]c2c1` (stereo not drawn), the percent span result is “inactive”.

For `CCOC(=O)c1cc2c(=O)n3cccc(C)c3nc2n(Cc2ccco2)c1=NC(=O)c1ccccc1`, the percent span entry is “inactive”.

As to `CNc1ccc(Br)cc(C(=O)/C=C/c2ccc(OC)cc2)c1=O`, the percent span entry was “inactive”.

Regarding `CC(=O)Nc1ccc(NC2=C(Cl)C(=O)c3ccccc3C2=O)cc1`, the percent span entry is “inactive”.

With `Cc1cc(C)c[n+](-c2nc3ccccc3nc2C(=C=[N-])C#N)c1`, the percent span entry is “inactive”.

On to `O=C(CSc1nnc(-c2cccs2)n1Cc1ccco1)c1ccc2c(c1)OCO2`, for which the percent span entry was “inactive”.

On to `Cc1cccn2c(=O)c3cc(C(N)=S)c(=N)n(CCCN4CCOCC4)c3nc12`, for which the percent span result is “inactive”.

Regarding `Cc1csc(Nc2ccccc2C(F)(F)F)n1`, the percent span entry was “inactive”.

Take `CNC(=S)N(Cc1cccs1)Cc1cc2ccc(OC)cc2[nH]c1=O`: the percent span entry was “inactive”.

As to `O=C(OCc1nc2ccccc2[nH]1)C12CC3CC(CC(C3)C1)C2`, the percent span entry was “inactive”.

As for `CCN1CCN(c2ccc(NC(=O)c3cccc4ncccc34)cc2)CC1`, the percent span entry was “inactive”.

As to `Cc1c(Cc2ccccc2)sc(N)c1C(N)=O`, the percent span entry is “inactive”.

As to `CCOC(=O)c1snc(-c2ccc(F)cc2)c1N`, the percent span result was “inactive”.

With `NC(=O)CSc1nnc(Cn2cnc3ccccc32)o1`, the percent span entry is “inactive”.

With `COc1ccc(N2C(=O)C(Cl)=C(Nc3c(C)n(C)n(-c4ccccc4)c3=O)C2=O)cc1`, the percent span entry is “inactive”.

With `CCN1/C(=C/c2ccc3cc(C)cc(C)c3[n+]2CC)Sc2cc(C)ccc21`, the percent span result is “inactive”.

With `CSc1nnc2ccc(-c3cccs3)nn12`, the percent span entry is “inactive”.

For the molecule `C=CCn1c(C)cc(-c2csc(NC)n2)c1C`, the percent span entry was “inactive”.

On to `O=c1c2c(n3nnnc3n1Cc1ccccc1)-c1ccccc1CC21CCCC1`, for which the percent span result was “inactive”.
